Measurements: patent publication US20080319065A1, “Systemic and Intrathecal Effects of a Novel Series of Phospholipase A2 Inhibitors on Hyperalgesia and Spinal Pge2 Release” (The Regents of the University of California, priority 2005, published 2008)

Experiments:
[1] = biological target: T1, Group VIA iPLA2 (GVIA PLA2) (Homo sapiens, UniProt O60733); experiment: In vitro Group VIA iPLA2 mixed micelle assay; format: biochemical; settings: for Inhibition of GVIA PLA2: at highest dose
T1 sequence (O60733 1-806): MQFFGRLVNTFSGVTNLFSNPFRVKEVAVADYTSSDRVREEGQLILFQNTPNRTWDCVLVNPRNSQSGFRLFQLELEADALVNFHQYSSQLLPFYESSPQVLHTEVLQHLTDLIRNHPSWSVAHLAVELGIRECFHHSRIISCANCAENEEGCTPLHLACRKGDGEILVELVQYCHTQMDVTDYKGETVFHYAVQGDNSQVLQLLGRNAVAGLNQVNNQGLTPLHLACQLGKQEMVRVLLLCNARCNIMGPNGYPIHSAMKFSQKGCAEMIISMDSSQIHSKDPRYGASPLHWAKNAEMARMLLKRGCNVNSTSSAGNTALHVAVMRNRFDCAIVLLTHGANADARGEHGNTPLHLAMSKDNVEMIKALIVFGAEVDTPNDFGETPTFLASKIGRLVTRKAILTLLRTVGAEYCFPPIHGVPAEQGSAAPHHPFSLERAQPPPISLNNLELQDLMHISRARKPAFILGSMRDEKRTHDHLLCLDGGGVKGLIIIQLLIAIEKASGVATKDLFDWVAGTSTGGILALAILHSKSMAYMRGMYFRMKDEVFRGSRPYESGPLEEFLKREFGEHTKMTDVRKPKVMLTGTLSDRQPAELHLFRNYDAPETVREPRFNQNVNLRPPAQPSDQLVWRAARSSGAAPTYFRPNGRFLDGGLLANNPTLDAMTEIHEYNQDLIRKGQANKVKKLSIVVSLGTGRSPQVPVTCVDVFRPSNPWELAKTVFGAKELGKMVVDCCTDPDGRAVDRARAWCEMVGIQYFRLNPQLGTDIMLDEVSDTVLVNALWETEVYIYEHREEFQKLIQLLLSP
Procedure: (§1) Numerous 2-oxoamides were tested for inhibition of PLA2s in in vitro assay systems. The data, summarized in Tables 1a, 1b and 2 are represented as XI(50) values unless otherwise noted. XI(50) is defined as the inhibitor concentration that produced 50% inhibition. XI(50) is used as opposed to the more common IC50 because GIVA and GVIA PLA2 are active at a two-dimensional lipid interface rather than in three-dimensional solution. (Deems, Anal. Biochem., 287:1-16, 2000). The 2-oxoamide inhibitors likely partition to the micelle interface and therefore must be represented as a percentage of surface concentration (mole fraction) as opposed to bulk concentration (molar units). (Kokotos, et al., J. Med. Chem., 45:2891-2893, 2002).
(§2) In vitro Group IV cPLA2 and Group VI iPLA2 assays were done as previously described (Kokotos, et al., supra, 2002). Briefly, 100 μM lipid substrate and 100,000 cpm radiolabeled analog were dried down under N2 and dissolved in assay buffer containing 400 μM Triton X-100 to yield a mixed micelle substrate solution. Inhibitors dissolved in DMSO were added to the reaction tubes and allowed to incubate with substrate for five minutes at 40° C. Pure enzyme was added to yield a final volume of 500 μl, and digestion was carried out at 40° C. for 30 minutes. Reactions were quenched and extracted using the Dole method and products were quantified by liquid scintillation counting. Percent inhibition was determined at a range of inhibitor mole fraction concentrations for XI(50) calculations.

spinal release of PGE2 = experiment: Intrathecal dialysis and PGE2 assay; format: in vivo, rat; settings: 3 mg/kg IP pretreatment
Excerpt: For spinal drug injections, lumbar catheters were implanted in rats under isoflurane anesthesia according to a modification of the procedure described by Yaksh (Yaksh and Rudy, supra, 1976). A polyethylene catheter (PE-5; Spectranetics, 0.014 in OD) was inserted into the intrathecal space and advanced to the rostral edge of the lumbar enlargement through an incision in the atlanto-occipital membrane. Five days after implantation rats were entered into the study. In separate experiments to assess spinal prostaglandins release, rats were prepared with lumbar loop dialysis catheters with three lumens, as previously described, see (Yaksh, et al., supra, 2001).
In brief, the outer two lumens were connected to a length of dialysis tubing (10 Kda cut off). The catheter was then implanted intrathecally using the same technique as described above for the intrathecal catheter. A three-day interval was allowed to elapse prior to including the animal in a study. In all cases, the exclusion criteria were i) presence of any neurological sequelae, ii) 20% weight loss after implantation, or iii) catheter occlusion.
Spinal dialysis experiments to define the spinal release of PGE2 were conducted in unanesthetized rats 3 days after dialysis catheter implantation. A syringe pump (Harvard, Natick, Mass.) was connected and dialysis tubing was perfused with artificial cerebro spinal fluid (ACSF) at a rate of 10 μl/min. The ACSF contained (mM) 151.1 Na^+, 2.6 K^+, 0.9 Mg^2+, 1.3 Ca^2+, 122.7 Cl^−, 21.0 HCO3, 2.5 HPO4 and 3.5 dextrose and was bubbled with 95% O2/5% CO2 before each experiment to adjust the final pH to 7.2. The efflux (20 min per fraction) was collected in an automatic fraction collector (Eicom, Kyoto, Japan) at 4° C. […] The concentration of PGE2 in spinal dialysate was measured by ELISA using a commercially available kit (Assay Designs 90001, Assay Designs, Ann Arbor, Mich.). The antibody is selective for PGE2 with less than 2.0% cross-reactivity to PGF1, PGF2, 6-ketoPGF1, PGA2 or PGB2, but cross-reacts with PGE1 and PGE3.

[2] = biological target: T2, Group IVA cPLA2 (GIVA PLA2) (Homo sapiens, UniProt P47712); experiment: In vitro Group IVA cPLA2 mixed micelle assay; format: biochemical; settings: for Group IVA XI(50) (mole fraction): Table 1b; for Inhibition of GIVA PLA2: at highest dose
T2 sequence (P47712 1-749): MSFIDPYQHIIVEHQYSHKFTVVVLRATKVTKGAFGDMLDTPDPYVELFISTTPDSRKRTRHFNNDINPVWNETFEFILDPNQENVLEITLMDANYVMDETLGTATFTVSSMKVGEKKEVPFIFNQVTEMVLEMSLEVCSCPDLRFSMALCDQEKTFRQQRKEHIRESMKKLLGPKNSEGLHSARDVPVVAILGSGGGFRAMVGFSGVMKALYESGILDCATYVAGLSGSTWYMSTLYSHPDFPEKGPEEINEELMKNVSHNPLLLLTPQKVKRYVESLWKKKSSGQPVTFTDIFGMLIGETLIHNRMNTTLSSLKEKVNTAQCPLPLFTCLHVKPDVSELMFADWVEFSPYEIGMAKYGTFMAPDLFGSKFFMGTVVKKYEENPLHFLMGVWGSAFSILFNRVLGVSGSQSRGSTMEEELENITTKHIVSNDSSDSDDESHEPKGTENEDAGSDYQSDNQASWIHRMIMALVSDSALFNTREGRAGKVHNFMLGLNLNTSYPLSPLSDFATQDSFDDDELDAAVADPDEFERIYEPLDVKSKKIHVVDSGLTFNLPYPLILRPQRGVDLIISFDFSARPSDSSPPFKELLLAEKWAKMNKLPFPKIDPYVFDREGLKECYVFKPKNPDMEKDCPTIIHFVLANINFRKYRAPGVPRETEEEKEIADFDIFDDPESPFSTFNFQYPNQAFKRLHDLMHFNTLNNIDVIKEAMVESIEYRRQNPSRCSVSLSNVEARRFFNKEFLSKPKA
Procedure: as §1, §2

[3] = system: murine RAW 264.7 macrophage-like cell line; experiment: Long-term LPS stimulation, PGE2 release; format: cell-based; settings: low μM range
Procedure: Several 2-oxoamides were tested in the long-term lipopolysaccharide (LPS) stimulation pathway in the murine RAW 264.7 macrophage-like cell line. (Raschke, et al., Cell, 1978, 15, 261-267). This pathway requires GIVA PLA2 activity and results in the extracellular release of many eicosanoid compounds including the prostaglandin PGE2. (Gijon, et al., leukoc. Biol., 1999, 65, 330-336). […] In the low μM range, AX041 and AX073 reduced PGE2 release by roughly 40% (FIG. 1(D)). At 1 μM and 5 μM concentrations, small activations were often seen. The in vitro and cellular results together are consistent with the known roles of GVIA PLA2 given that AX010, a selective GVIA inhibitor, had no cellular effect. […] Inhibitors selective for GIVA PLA2 or dual specificity inhibitors reduce PGE2 levels, also consistent with the known role of GIVA PLA2 in PGE2 production.

GV sPLA2 = biological target: T3, GV sPLA2 (Homo sapiens, UniProt P39877); experiment: GV sPLA2 activity assay; format: biochemical; settings: at 0.091 mole fraction
T3 sequence (P39877 21-138): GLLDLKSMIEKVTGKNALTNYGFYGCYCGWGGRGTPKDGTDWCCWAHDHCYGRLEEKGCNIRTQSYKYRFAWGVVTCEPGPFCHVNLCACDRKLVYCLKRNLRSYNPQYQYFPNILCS
Procedure: GV sPLA2 activity was measured in a similar assay. The final assay buffer was composed of 50 mM Tris-HCl (pH 8.0) and 5 mM CaCl2. Each assay was performed in 500 μL total volume made up of 100 μL of 5× substrate solution (20 μL of 10 mM Triton X-100 and 80 μL assay buffer), 390 μL assay buffer, 10 μL GV sPLA2 solution (1 μL of 40 ng/μL stock and 9 μL assay buffer), and 5 μL of DMSO or 2-oxoamide in DMSO. The 5× substrate solution was prepared by drying down the phospholipids (in organic solvent) with N2. The appropriate volume of 10 mM Triton X-100 was added, heated and vortexed until clear. Then assay buffer was added to make a 5× substrate solution. The final mixed micelles were at 400 μM Triton X-100 and 100 μM DPPC (of which 100,000 cpm of ^14C-DPPC).

SMILES: CCC(=O)C(=O)NCCCC(=O)O [AX006]
- inhibition of GVIA PLA2 (iPLA2), in words [1]: do not inhibit GVIA PLA2
- Group VIA XI(50), class ([1]; at 0.091 mole fraction): N.D. (25% inhibition or less at 0.091 mole fraction)
- Inhibition of GVIA PLA2 [1]: ND (negligible inhibition (0-25%) at highest dose)
- IT SP-evoked release of PGE2 in spinal dialysate (spinal release of PGE2): significant increase as compared to vehicle only
- inhibition of GIVA PLA2 (cPLA2), in words [2]: inhibit GIVA PLA2
- Group IVA XI(50) (mole fraction) [2]: 0.024 ± 0.015 mole fraction

SMILES: COC(=O)CCCNC(=O)C(=O)CCCc1ccccc1 [AX037, 4-(2-Oxo-5-phenyl-pentanoylamino)-butyric acid methyl ester]
- Inhibition of GVIA PLA2 [1]: ND (negligible inhibition (0-25%) at highest dose)
- melting point: 30 to 31 °C
- Inhibition of GIVA PLA2 [2]: ND (negligible inhibition (0-25%) at highest dose)

SMILES: COC(=O)CCCNC(=O)C(=O)CCCCc1ccccc1 [AX038, 4-(2-Oxo-6-phenyl-hexanoylamino)-butyric acid methyl ester]
- Inhibition of GVIA PLA2 [1]: ND (negligible inhibition (0-25%) at highest dose)
- melting point: 52 to 54 °C
- Inhibition of GIVA PLA2 [2]: ND (negligible inhibition (0-25%) at highest dose)

SMILES: CCCCCCCCC=CCCCCCCCC(=O)C(=O)NCCCC(=O)O [AX040, 4-(2-Oxo-nonadec-10-enoylamino)-butyric acid]
- inhibition of GVIA PLA2 (iPLA2), in words [1]: do not inhibit GVIA PLA2
- Inhibition of GVIA PLA2 [1]: ND (negligible inhibition (0-25%) at highest dose)
- melting point: 57 to 59 °C
- inhibition of GIVA PLA2 (cPLA2), in words [2]: inhibit GIVA PLA2

SMILES: CCCCCCCCC=CCCCCCCCC(=O)C(=O)NCCCC(=O)OC [AX041, 4-(2-Oxo-nonadec-10-enoylamino)-butyric acid methyl ester]
- reduction of PGE2 release [3]: roughly 40%

SMILES: CCCCCCCCCCCCCCC(=O)C(=O)NCCCC(=O)OC(C)(C)C [AX057, tert-Butyl 4-[(2-oxohexadecanoyl)amino]butanoate]
- efficacy against sPLA2 (GV sPLA2): 76.7%
- Group VIA XI(50) (mole fraction) ([1]; Table 1b): 0.026 ± 0.014 mole fraction
- melting point: 61 to 62 °C
- IT SP-evoked release of PGE2 in spinal dialysate (spinal release of PGE2): significant increase as compared to vehicle only
- Group IVA XI(50) (mole fraction) [2]: 0.031 ± 0.017 mole fraction

SMILES: CCCCCCCCCCCCCCC(=O)C(=O)NC(C=CC(=O)O)CCCC (stereo not drawn) [AX074, 4-(2-Oxo-hexadecanoylamino)-oct-2-enoic acid]
- inhibition of GVIA PLA2 (iPLA2), in words [1]: do not inhibit GVIA PLA2
- Inhibition of GVIA PLA2 [1]: ND (negligible inhibition (0-25%) at highest dose)
- melting point: 65 to 67 °C
- Inhibition of GIVA PLA2, XI(50) [2]: XI(50) =0.003 ± 0.001 mole fraction
- inhibition of GIVA PLA2 (cPLA2), in words [2]: inhibit GIVA PLA2
